# Assay results from article PMC4551558, “Differential inhibition of PDKs by phenylbutyrate and enhancement of pyruvate dehydrogenase complex activity by combination with dichloroacetate” (Journal of Inherited Metabolic Disease, 2015).
# How the values were obtained:
# PDK3 = PDK3 (Homo sapiens, UniProt Q15120); test: […]-phosphate incorporation into recombinant E1alpha by recombinant human PDK3; Lineweaver-Burk kinetics; format: biochemical; conditions: read-out: Ki (phenylbutyrate)
# PDK1 = PDK1 (Homo sapiens, UniProt Q15118); test: […]-phosphate incorporation into recombinant E1alpha by recombinant human PDK1; Lineweaver-Burk kinetics; format: biochemical; conditions: read-out: Ki (phenylbutyrate)
# Chain of PDK1 (Q15118 29-436): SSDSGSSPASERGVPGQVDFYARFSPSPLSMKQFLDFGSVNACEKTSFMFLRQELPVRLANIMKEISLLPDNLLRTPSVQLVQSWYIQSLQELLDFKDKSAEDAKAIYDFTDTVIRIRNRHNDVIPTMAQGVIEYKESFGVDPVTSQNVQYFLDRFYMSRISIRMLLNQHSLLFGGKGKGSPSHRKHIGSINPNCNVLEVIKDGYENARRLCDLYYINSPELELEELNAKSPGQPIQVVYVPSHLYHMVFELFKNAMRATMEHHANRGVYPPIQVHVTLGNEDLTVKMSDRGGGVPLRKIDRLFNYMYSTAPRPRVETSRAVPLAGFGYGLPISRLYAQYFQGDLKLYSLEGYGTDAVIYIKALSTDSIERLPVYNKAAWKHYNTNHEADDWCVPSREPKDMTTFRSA
# Chain of PDK1 (P08559 30-390 partner): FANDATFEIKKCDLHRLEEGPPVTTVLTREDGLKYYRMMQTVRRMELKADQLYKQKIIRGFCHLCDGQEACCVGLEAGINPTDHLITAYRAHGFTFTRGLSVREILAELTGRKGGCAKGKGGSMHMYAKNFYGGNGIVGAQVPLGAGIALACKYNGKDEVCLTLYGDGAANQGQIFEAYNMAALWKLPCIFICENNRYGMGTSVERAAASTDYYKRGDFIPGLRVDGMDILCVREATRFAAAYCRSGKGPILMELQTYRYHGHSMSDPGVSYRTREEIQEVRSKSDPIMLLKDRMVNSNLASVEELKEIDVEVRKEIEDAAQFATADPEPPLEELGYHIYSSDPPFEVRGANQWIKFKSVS
# Chain of PDK3 (Q15120 whole entry): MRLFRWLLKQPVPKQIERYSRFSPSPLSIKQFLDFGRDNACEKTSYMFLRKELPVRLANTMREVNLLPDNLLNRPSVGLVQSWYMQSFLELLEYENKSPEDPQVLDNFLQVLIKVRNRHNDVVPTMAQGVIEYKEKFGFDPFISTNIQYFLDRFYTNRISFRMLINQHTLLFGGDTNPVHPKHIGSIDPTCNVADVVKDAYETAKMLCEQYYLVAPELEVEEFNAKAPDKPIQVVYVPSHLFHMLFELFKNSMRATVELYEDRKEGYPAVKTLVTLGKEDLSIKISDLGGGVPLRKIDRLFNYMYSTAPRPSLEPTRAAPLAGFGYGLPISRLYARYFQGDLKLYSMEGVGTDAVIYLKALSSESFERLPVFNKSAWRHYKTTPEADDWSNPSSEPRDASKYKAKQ
# Chain of PDK3 (P08559 30-390 partner): as the sequence (P08559 30-390 partner) above
smiles,measurement,setting,value
"O=C(O)CCCc1ccccc1 [PB, phenylbutyrate]",Ki,PDK3,980 ± 190 µM
same,Ki,PDK1,7.1 ± 0.15 mM
